Source: US20230025280A1, “PH RESPONSIVE COMPOSITIONS, FORMULATIONS, AND METHODS OF IMAGING A TUMOR” (ONCONANO MEDICINE, INC, priority 2019, published 2023)
Several values for one entry are separate records, joined by “and”; a condition that tells them apart may be missing. Equal entries are not always repeated. Entries after “also recorded” stand apart in the source; their conditions may differ.

Columns and labels:
lymph node metastases = assay: Lymph node imaging (PEARL) versus H/E staining; type: in vivo, human
Description: After lymph node dissection, lymph nodes were identified by the attending pathologist and harvested if present. After harvesting, the single lymph nodes were imaged before further processing using PEARL imaging. The images were processed using ImageJ (FiJi). The fluorescent images were reviewed by 2 separate researchers blinded for histology, whether fluorescence was present. The pathologist, blinded for fluorescence images, evaluated whether the lymph node was positive for tumor invasion or isolated tumor cells based on H/E staining.

[1] = Safety (adverse effects) in dog-patients; type: in vivo; details: 7 dogs; 0.5-2.0 mg/kg; injection through discharge
Experimental: Materials and methods: After evaluation and recruitment for the study, dog-patients underwent (A) pre-operation analysis to identify possible types of lesion, and (B) Compound 1 tracer was administrated at 0.5 to 2.0 mg/kg, 18-78 hours prior to surgery. During the surgery (C) intra-operative imaging was performed using a Hamamatsu PDE or custom NIR camera before and after tumor removal (or after limb amputations). Resected tissues were (D) imaged with a LI-COR Pearl Imaging station and tumor-to-normal-tissue ratios were calculated accordingly. The resected tissues were then (E) preserved for histopathology validation. Safety was assessed separately in terms of adverse effects through physical examinations, laboratory tests and the recording of adverse events from infusion through discharge from hospital.
Results: A summary of the data from spayed or neutered dog patients that were recruited for the study is shown below (Table 16). Results from a total of seven dogs of different breeds, aged 4-12 years, body weights ranging from 20.9-59.5 kg, and with a range of tumors ware presented, including instances where more than one tumor was present. Doses studied thus far ranged from 0.5-2.0 mg/kg. […] Both acute and chronic adverse effects were monitored from the time of injection through discharge of the animals from the hospital and follow-up appointments (to remove sutures) and noted.

[2] = pH-dependent activation of Compound 1 in human plasma
[3] = Phase 1 safety assessment; type: in vivo, human
Experimental: Phase 1a was a dose-finding study performed in 5 cohorts of 3 patients each. The dose levels evaluated were […], and 1.2 mg/kg, in this sequence. Inter-cohort dose escalation took place after the last patient in the previous cohort completed the Day 10 safety assessment. Safety, PK, and imaging feasibility were evaluated in both the Phase 1a and 1b portions of the study. Patient safety is assessed during the study and for up to 10 days post-dose.

[4] = test system: tumor positive surgical margins; assay: Fluorescence detection of tumor positive surgical margins versus final histopathology; type: in vivo, human; parameters: key to Histology vs. Fluorescence Correlation: TP = true positive; TN = true negative; FP = false positive; details: for Histology vs. Fluorescence Correlation / Surgical Margin by Fluorescence: per patient
Description: Tumor specimens were processed for histology according to the standard pathology practice used in clinical cancer care. Diagnosis on margins, selected histological features necessary for clinical decision making were provided. Fluorescence images were collected from the tumor and lymph node specimens and study-related biopsies. Margin width and number of positive margins were noted and correlated to the location of fluorescence in the margins. From this, the correlation between Compound 1 fluorescence and histopathology were calculated.
In a total of 24 patients (HNSCC:13; BC:11), 9 patients (HNSCC:6; BC:3) had histologically confirmed tumor positive surgical margins that were undetected during SOC surgery. Fluorescence guided margin assessment was performed on a per-patient basis. Compound 1 imaging visualized all of these surgical margin patients yielding 100% sensitivity. […] There were 5 of 15 false positives (specificity of 67%), in which fluorescence detected tissue was not confirmed to be tumor by histopathological assessment. 5 of 14 (36%) patients had fluorescent tissues that were negative for tumor (PPV: 64%).
In this Phase 1 study, the intraoperative and postoperative imaging data was used for a preliminary analysis of the diagnostic performance of Compound 1. Performance parameters such as MFI, CNR, and TBR were calculated in vivo and in tissue slices to characterize the ability of Compound 1 to delineate tumor tissue from background. Sensitivity and specificity for detecting tumor tissue from the adjacent normal tissue was evaluated using tissue specimen fluorescence and presented as a ROC curve. The sensitivity, specificity, and PPV of Compound 1 fluorescence in detecting pathology confirmed tumor positive margins were obtained at the patient level.

[5] = test system: tumor positive surgical margins; assay: as above; type: in vivo, human; details: 1.2 mg/kg; EC; per patient
[6] = 403 lymph nodes across 4 tumor types
[7] = TOTAL of all patients, 403 lymph nodes
[8] = lymph nodes per patient, fluorescence vs H/E pathology
[9] = 24 patients (HNSCC:13; BC:11), per-patient

In the case of “PEO90-140-b-P(DBA60-150-r-ICG0-3-r-AMA0-3) [Compound 1]”, the “Overall sensitivity in lymph nodes” value (lymph node metastases; 30/(30+34)) is reported as 0.47, the “Overall specificity in lymph nodes” value (lymph node metastases; 293/(46+293)) is reported as 0.86 and the “Lymph nodes fluorescence negative / H/E negative” value (lymph node metastases; [6]) is reported as 293 of 339 and 293. The “Lymph nodes fluorescence negative / H/E positive” value (lymph node metastases; [6]) was 34, the “Lymph nodes fluorescence negative, TOTAL” value (lymph node metastases; [6]) was 327 and the “Lymph nodes fluorescence positive / H/E negative” value (lymph node metastases; [6]) was 46. For the same substance, the “Lymph nodes fluorescence positive / H/E positive” value (lymph node metastases; [6]) was 30, the “Lymph nodes fluorescence positive, TOTAL” value (lymph node metastases; [6]) was 76 and the “False Negatives n” value (lymph node metastases; [7]) was 34. For the same substance, the “False Positives n” value (lymph node metastases; [7]) was 46, the “True Negatives n” value (lymph node metastases; [7]) was 293 and the “True Positives n” value (lymph node metastases; [7]) was 30. The “False Negatives n” value (lymph node metastases; [8]) was 0 (23×) and 1 (4×) and 3 and 2 and 25, the “False Positives n” value (lymph node metastases; [8]) was 0 (12×) and 3 (4×) and 1 (9×) and 4 and 2 (2×) and 6 and 11 and the “True Negatives n” value (lymph node metastases; [8]) was 0 (12×) and 50 and 14 (2×) and 7 and 44 and 20 and 2 (3×) and 34 and 1 (2×) and 15 and 41 and 8 and 16 and 18 and 4. For the same substance, the “True Positives n” value (lymph node metastases; [8]) was 2 (2×) and 0 (22×) and 1 (4×) and 12 and 10, the Adverse effects [1] was “no adverse effects” and the “Fluorescence on adding increasing amounts of Compound 1” value ([2]; human plasma with HCl) was “increase in fluorescence”. For the same substance, the “Fluorescence on adding increasing amounts of Compound 1” value ([2]; human plasma, no acid) was “did not show any increase in fluorescence”, the Safety profile ([3]; Phase 1a, 0.1 to 1.2 mg/kg) was “comparable at all the dose levels studied and did not raise any specific safety concerns” and the Tolerability ([3]; Phase 1b, 1.2 mg/kg) was “well tolerated”. The “Histology vs. Fluorescence Correlation” value ([4]; 0.1 mg/kg, HNSCC) was “TP (2×) and TN”, the “Surgical Margin by Fluorescence” value ([4]; 0.1 mg/kg, HNSCC) was “Positive; also recorded: Negative” and the “Histology vs. Fluorescence Correlation” value ([4]; 0.3 mg/kg, BC) was “TP and TN (2×)”. For the same substance, the “Surgical Margin by Fluorescence” value ([4]; 0.3 mg/kg, BC) was “Positive; also recorded: Negative”, the “Histology vs. Fluorescence Correlation” value ([4]; 0.5 mg/kg, BC) was “TN” and the “Surgical Margin by Fluorescence” value ([4]; 0.5 mg/kg, BC) was “Negative”. For the same substance, the “Histology vs. Fluorescence Correlation” value ([4]; 0.5 mg/kg, HNSCC) was “TN and TP”, the “Surgical Margin by Fluorescence” value ([4]; 0.5 mg/kg, HNSCC) was “Negative; also recorded: Positive” and the “Histology vs. Fluorescence Correlation” value ([4]; 0.8 mg/kg, BC) was “TN and TP”. The “Surgical Margin by Fluorescence” value ([4]; 0.8 mg/kg, BC) was “Negative; also recorded: Positive”, the “Histology vs. Fluorescence Correlation” value ([4]; 0.8 mg/kg, HNSCC) was “FP” and the “Surgical Margin by Fluorescence” value ([4]; 0.8 mg/kg, HNSCC) was “Positive”. The “Histology vs. Fluorescence Correlation” value ([4]; 1.2 mg/kg, BC) was “TN (2×) and FP (2×) and TP”, the “Surgical Margin by Fluorescence” value ([4]; 1.2 mg/kg, BC) was “Negative; also recorded: Positive” and the “Histology vs. Fluorescence Correlation” value ([4]; 1.2 mg/kg, CRC) was “TN”. For the same substance, the “Surgical Margin by Fluorescence” value ([4]; 1.2 mg/kg, CRC) was “Negative”, the “Histology vs. Fluorescence Correlation” value ([4]; 1.2 mg/kg, EC) was “TN” and the “Histology vs. Fluorescence Correlation” value ([4]; 1.2 mg/kg, HNSCC) was “TP (3×) and FP (2×) and TN (2×)”. The “Surgical Margin by Fluorescence” value ([4]; 1.2 mg/kg, HNSCC) was “Positive; also recorded: Negative”, the “Fluorescence in patients with histologically negative margin” value ([4]; 2 of 3 EC and 1 of 3 CRC patients) was “negative” and the “PPV for surgical margin patients” value [4, 9] was 64%. For the same substance, the “Sensitivity for tumor positive surgical margin patients” value [4, 9] was 100%, the “Specificity for surgical margin patients” value [4, 9] was 67% and the “Patients with false positive fluorescence margins” value ([4]; BC) was 2. The “Sensitivity for positive margin patients” value ([4]; BC) was 100%, the “Specificity for positive margin patients” value ([4]; BC) was 75% and the “Patients with false positive fluorescence margins” value ([4]; HNSCC) was 3. The “Sensitivity for positive margin patients” value ([4]; HNSCC) was 100%, the “Specificity for positive margin patients” value ([4]; HNSCC) was 57% and the “False negatives in surgical margin detection” value ([4]; HNSCC and BC) was “no false negatives”. For the same substance, the “False positives (fluorescent tissue not confirmed tumor by histopathology)” value ([4]; HNSCC and BC, per-patient) was 5 of 15, the “Histologically proven tumor positive surgical margins detected” value ([4]; HNSCC:6, BC:3) was 9 out of 9 and 9 and the “Surgical Margin by Fluorescence” value [5] was “Negative”.
